The values below come from BindingDB's records for patent US20240287037 (Plexium, 2024).

Structures are written as SMILES.

The target of the assay is Protein cereblon (Homo sapiens, UniProt Q96SW2). The assay is described as follows: Bioluminescence Resonance Energy Transfer (BRET). The method, then: 2 uL of 10 uM CRBN tracer (diluted 1:5 in Tracer Dilution Buffer) was added to each well. Plates were centrifuged at 320 g for 1 min at room temperature. […] Plates were shaken for 2 minutes on a microplate shaker to mix compounds. Plates were centrifuged at 320 g for 1 min at room temperature, and subsequently incubated for 2 hours at 37 C.After incubation, plates were allowed to cool to room temperature for 15 minutes. […] Plates were read on a CLARIOstar microplate reader (BMG LabTech), measuring at 450 nm (donor emission) and 610 nm (acceptor emission).
(In general: In BRET a luciferase serves as donor, and the signal depends on an acceptor being close.)

Chain of Protein cereblon (Q96SW2 whole entry): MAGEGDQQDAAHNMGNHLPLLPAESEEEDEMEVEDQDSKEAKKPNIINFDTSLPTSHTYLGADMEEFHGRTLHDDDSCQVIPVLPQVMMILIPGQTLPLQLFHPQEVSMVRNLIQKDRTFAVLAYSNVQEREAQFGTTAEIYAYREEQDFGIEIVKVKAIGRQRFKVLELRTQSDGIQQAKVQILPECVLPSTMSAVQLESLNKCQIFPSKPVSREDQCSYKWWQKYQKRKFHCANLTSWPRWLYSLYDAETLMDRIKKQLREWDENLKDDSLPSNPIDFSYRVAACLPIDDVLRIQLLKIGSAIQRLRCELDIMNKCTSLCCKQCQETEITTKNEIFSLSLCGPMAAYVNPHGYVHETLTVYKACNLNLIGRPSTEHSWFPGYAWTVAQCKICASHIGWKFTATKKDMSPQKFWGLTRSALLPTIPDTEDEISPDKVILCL

The term EC50 denotes the concentration that produces a half-maximal response. Turning to `N#CC1(C2CN([C@H]3CCCC[C@@H]3Oc3ccc4c(c3)CN(C3CCC(=O)NC3=O)C4=O)C2)CCC1` (stereo partly specified) [US20240287037, Example 23], the EC50 came out at 28 nM.
